# In US6455540B1, “Methods of use of quinolone compounds against anaerobic pathogenic bacteria” (priority 1999, dated 2002):
# Assays:
# Assay in all cases: Agar dilution MIC
# [1] = tested on: Actinomyces odontolyticus; assay type: cell-based; details: Schaalia odontolytica, 10 isolates
# Bacteroides tectum = assay type: cell-based; details: 22 isolates
# [2] = tested on: Peptostreptococcus magnus; assay type: cell-based; details: Finegoldia magna, 13 isolates
# [3] = tested on: Peptostreptococcus prevotii; assay type: cell-based; details: Anaerococcus prevotii, read-out: Minimal Inhibitory Concentration 50% (MIC50); 9 isolates
# [4] = tested on: Porphyromonas asaccharolyticus; assay type: cell-based, Porphyromonas asaccharolytica; details: Porphyromonas, 11 isolates
# Porphyromonas gingivalis = assay type: cell-based; details: Porphyromonas gingivalis, 13 isolates
# [5] = tested on: Clostridium clostridioforme; assay type: cell-based; details: Clostridium, 11 isolates
# Bacteroides ureolyticus = assay type: cell-based; details: 17 isolates
# [6] = tested on: Prevotella heparinolytica; assay type: cell-based; details: 16 isolates
# Porphyromonas canoris = assay type: cell-based; details: Porphyromonas canoris, 10 isolates
# Fusobacterium varium = assay type: cell-based; details: Fusobacterium varium, 17 isolates
# Bilophila wadsworthia = assay type: cell-based; details: 16 isolates, agar supplemented with pyruvate
# Clostridium ramosum = assay type: cell-based; details: Thomasclavelia ramosa, 10 isolates
# Bacteroides gracilis = assay type: cell-based, Bacteroides gracilis (Campylobacter gracilis); details: 11 isolates
# Porphyromonas macaccae = assay type: cell-based; details: Porphyromonas, 13 isolates
# Fusobacterium russii = assay type: cell-based
# Actinomyces israelii = assay type: cell-based; details: 6 isolates
# Prevotella bivia = assay type: cell-based; details: Prevotella bivia, 21 isolates
# [7] = tested on: Anaerobiospirillum thomasii; assay type: cell-based; details: Anaerobiospirillum thomasii, 13 isolates
# Porphyromonas spp. = assay type: cell-based, Porphyromonas cangingivalis, cansulci, circumdentaria, levii; details: Porphyromonas, 11 isolates
# [8] = tested on: Fusobacterium spp. group 2; assay type: cell-based, Fusobacterium mortiferum, necrogenes, ulcerans; details: Fusobacterium, 12 isolates
# [9] = tested on: Prevotella denticola/loeschii group; assay type: cell-based; details: 6 isolates
# [10] = tested on: Anaerobiospirillum succiniciproducens; assay type: cell-based; details: 3 isolates
# Clostridium dfficile = assay type: cell-based, Clostridium difficile; details: Clostridium
# Clostridium inocuum = assay type: cell-based, Clostridium innocuum; details: Clostridium, 11 isolates
# [11] = tested on: Prevotella buccae-oris group; assay type: cell-based; details: Prevotella, 22 isolates
# [12] = tested on: Prevotella melaninogenica; assay type: cell-based; details: Prevotella melaninogenica, 12 isolates
# [13] = tested on: Peptostreptococcus asaccharolyticus; assay type: cell-based; details: Peptoniphilus asaccharolyticus, 11 isolates
# [14] = tested on: Fusobacterium spp group 1; assay type: cell-based; details: 19 isolates
# Veillonella spp. = assay type: cell-based; details: Veillonella, 24 isolates
# Prevotella intermedia = assay type: cell-based; details: 11 isolates
# [15] = tested on: Peptostreptococcus micros; assay type: cell-based; details: 12 isolates
# [16] = read-out: Minimal Inhibitory Concentration 90% (MIC90)
# [17] = read-out: Minimal Inhibitory Concentration 50% (MIC50)
compound,measurement,setting,value
CC[C@H]1OC(=O)[C@H](C)[C@@H](O[C@H]2C[C@@](C)(OC)[C@@H](O)[C@H](C)O2)[C@H](C)[C@@H](O[C@@H]2O[C@H](C)C[C@H](N(C)C)[C@H]2O)[C@](C)(O)C[C@@H](C)CN(C)[C@H](C)[C@@H](O)[C@]1(C)O [Azithromycin],MIC90,[1]; [16],0.06 µg/mL
same,MIC50,[1]; [17],0.03 µg/mL
same,Minimal Inhibitory Concentration Range,Bacteroides tectum,0.5 to 2 µg/mL
same,MIC90,"Bacteroides tectum; Bacteroides pyogenes, read-out: Minimal Inhibitory Concentration 90% (MIC90)",2 µg/mL
same,MIC50,"Bacteroides tectum; Bacteroides pyogenes, read-out: Minimal Inhibitory Concentration 50% (MIC50)",1 µg/mL
same,MIC50,[2]; [17],4 µg/mL
same,MIC90,[2]; [16],> 32 µg/mL
same,MIC50,[3],32 µg/mL
same,MIC50,[4]; [17],0.25 µg/mL
same,MIC90,[4]; [16],> 32 µg/mL
same,MIC50,Porphyromonas gingivalis; [17],0.25 µg/mL
same,MIC90,Porphyromonas gingivalis; [16],0.5 µg/mL
same,MIC90,[5]; [16],> 32 µg/mL
same,MIC50,[5]; [17],16 µg/mL
same,Minimal Inhibitory Concentration Range,Bacteroides ureolyticus,0.06 to 0.25 µg/mL
same,MIC90,"Bacteroides ureolyticus; Campylobacter ureolyticus, read-out: Minimal Inhibitory Concentration 90% (MIC90)",0.25 µg/mL
same,MIC50,"Bacteroides ureolyticus; Campylobacter ureolyticus, read-out: Minimal Inhibitory Concentration 50% (MIC50)",0.06 µg/mL
same,Minimal Inhibitory Concentration Range,[6],0.5 to 1 µg/mL
same,MIC90,"[6]; Prevotella heparinolytica, read-out: Minimal Inhibitory Concentration 90% (MIC90)",1 µg/mL
same,MIC50,"[6]; Prevotella heparinolytica, read-out: Minimal Inhibitory Concentration 50% (MIC50)",0.5 µg/mL
same,MIC50,Porphyromonas canoris; [17],0.25 µg/mL
same,MIC90,Porphyromonas canoris; [16],0.25 µg/mL
same,MIC50,Fusobacterium varium; [17],32 µg/mL
same,MIC90,Fusobacterium varium; [16],> 32 µg/mL
same,Minimal Inhibitory Concentration Range,Bilophila wadsworthia,1 to 16 µg/mL
same,MIC90,"Bilophila wadsworthia; Bilophila wadsworthia, read-out: Minimal Inhibitory Concentration 90% (MIC90)",16 µg/mL
same,MIC50,"Bilophila wadsworthia; Bilophila wadsworthia, read-out: Minimal Inhibitory Concentration 50% (MIC50)",4 µg/mL
same,MIC50,Clostridium ramosum; [17],0.25 µg/mL
same,MIC90,Clostridium ramosum; [16],> 32 µg/mL
same,Minimal Inhibitory Concentration Range,Bacteroides gracilis,0.06 to 0.5 µg/mL
same,MIC90,"Bacteroides gracilis; Campylobacter gracilis, read-out: Minimal Inhibitory Concentration 90% (MIC90)",0.5 µg/mL
same,MIC50,"Bacteroides gracilis; Campylobacter gracilis, read-out: Minimal Inhibitory Concentration 50% (MIC50)",0.125 µg/mL
same,MIC50,Porphyromonas macaccae; [17],0.5 µg/mL
same,MIC90,Porphyromonas macaccae; [16],0.5 µg/mL
same,Minimal Inhibitory Concentration Range,Fusobacterium russii,0.03 to 32 µg/mL
same,MIC50,"Fusobacterium russii; Fusobacterium russii, read-out: Minimal Inhibitory Concentration 50% (MIC50)",0.25 µg/mL
same,MIC90,"Fusobacterium russii; Fusobacterium russii, read-out: Minimal Inhibitory Concentration 90% (MIC90)",32 µg/mL
same,Minimal Inhibitory Concentration Range,Actinomyces israelii,0.06 µg/mL
same,MIC50,"Actinomyces israelii; Actinomyces israelii, read-out: Minimal Inhibitory Concentration 50% (MIC50)",0.06 µg/mL
same,MIC90,Prevotella bivia; [16],1 µg/mL
same,MIC50,Prevotella bivia; [17],0.5 µg/mL
same,MIC50,[7]; [17],0.5 µg/mL
same,MIC90,[7]; [16],1 µg/mL
same,MIC50,Porphyromonas spp.; [17],0.25 µg/mL
same,MIC90,Porphyromonas spp.; [16],0.5 µg/mL
same,MIC50,[8]; [17],16 µg/mL
same,MIC90,[8]; [16],32 µg/mL
same,Minimal Inhibitory Concentration Range,[9],0.06 to 16 µg/mL
same,MIC50,"[9]; Prevotella denticola, read-out: Minimal Inhibitory Concentration 50% (MIC50)",0.5 µg/mL
same,Minimal Inhibitory Concentration Range,[10],0.5 to 1 µg/mL
same,MIC50,"[10]; Anaerobiospirillum succiniciproducens, read-out: Minimal Inhibitory Concentration 50% (MIC50)",0.5 µg/mL
same,MIC50,Clostridium dfficile; [17],2 µg/mL
same,MIC90,"Clostridium dfficile; read-out: Minimal Inhibitory Concentration 90% (MIC90), 14 isolates",> 32 µg/mL
same,MIC90,Clostridium inocuum; [16],> 32 µg/mL
same,MIC50,Clostridium inocuum; [17],> 32 µg/mL
same,MIC90,[11]; [16],1 µg/mL
same,MIC50,[11]; [17],0.5 µg/mL
same,MIC90,[12]; [16],32 µg/mL
same,MIC50,[12]; [17],0.25 µg/mL
same,MIC50,[13]; [17],4 µg/mL
same,MIC90,[13]; [16],> 32 µg/mL
same,Minimal Inhibitory Concentration Range,[14],0.06 to 32 µg/mL
same,MIC50,"[14]; Fusobacterium, GROUP1, read-out: Minimal Inhibitory Concentration 50% (MIC50)",1 µg/mL
same,MIC90,"[14]; Fusobacterium, GROUP1, read-out: Minimal Inhibitory Concentration 90% (MIC90)",8 µg/mL
same,MIC90,Veillonella spp.; [16],> 32 µg/mL
same,MIC50,Veillonella spp.; [17],4 µg/mL
same,Minimal Inhibitory Concentration Range,Prevotella intermedia,0.03 to 1 µg/mL
same,MIC90,"Prevotella intermedia; Prevotella intermedia, read-out: Minimal Inhibitory Concentration 90% (MIC90)",0.5 µg/mL
same,MIC50,"Prevotella intermedia; Prevotella intermedia, read-out: Minimal Inhibitory Concentration 50% (MIC50)",0.125 µg/mL
same,Minimal Inhibitory Concentration Range,[15],0.5 to 1 µg/mL
same,MIC50,"[15]; Parvimonas micra, read-out: Minimal Inhibitory Concentration 50% (MIC50)",0.5 µg/mL
same,MIC90,"[15]; Parvimonas micra, read-out: Minimal Inhibitory Concentration 90% (MIC90)",1 µg/mL
